Data taken from paper PMC7156458, “Synthetic biology based construction of biological activity-related library of fungal decalin-containing diterpenoid pyrones” (Nature Communications, 2020).
Several values for one entry are separate records, joined by “and”; a condition that tells them apart may be missing. Equal values may be shown once. Read-outs that look alike come from different tables or passages of the source.

Assays:
[1] = tested on: human immunodeficiency virus-1 (HIV-1); test: anti-HIV MAGI assay; type: cell-based; conditions: anti-HIV
Description: (§1) We examined the inhibitory activities of DDPs against various species of bacteria (both gram-negative and gram-positive bacteria), fungi and viruses. […] In contrast, preliminary screening of the DDPs for anti-viral agents with hepatitis B virus (HBV), measles virus (MV), Epstein-Barr virus (EBV), herpes simplex virus (HSV) and human immunodeficiency virus-1 (HIV-1) indicated their selective inhibition of HIV.

[2] = tested on: MAGI cells; test: cytotoxicity in the anti-HIV assay (CC50); type: cell-based
Description: as §1
Policy information about cell lines […]
HeLa-CD4-LTR/ !-galactosidase (MAGI) cells provided by Dr. J. Overbaugh through the NIH AIDS Research and Reference […]
MAGI cells were authenticated by the NIH.
Mycoplasma contamination All the cell lines tested negative for mycoplasma contamination.
Commonly misidentified lines No commonly mis-identified cell lines. […]

[3] = tested on: MCF-7 cells; test: cell cytotoxic effects against MCF-7 cells (72 h), A490; type: cell-based, human; conditions: MCF-7, 72 h; for viability at 0.1 µM / viability at 1 µM / viability at 10 µM: Homo sapiens, MCF7, 72 h, read-out: A490 (control =1) ave
Procedure: !" ' ' '! !" ' ' '! !" ' ' '!!" ' ' '!!" ' ' '!!" ' ' '!!" ' ' '!!" ' ' '! !" ' ' '! !" ' ' '! !" ' ' '! !"#$
( % ) * '! '' '# '+ '$ '( '%
! " # $ %& %% %' %( %) %! %"
!" ' ' '! !" ' ' '!!" ' ' '!!" ' ' '!!" ' ' '!!" ' ' '!!" ' ' '! !" ' ' '! !" ' ' '! !" ' ' '! !" ' ' '! […]
Supplementary Fig. 46. a, Cell cytotoxic effects of DDPs against MCF-7 cells (72 h).
dose dependent cytotoxic effects against MCF-7 cells were tested their inhibitory activity against mammosphere
formation. Compound in blue (16) was also performed mammosphere assay as negative control. Data represent
mean±s.d. from three independent replicate experiments. […]
Source data underlying Supplementary Figure 46a are provided in a Source Data file. […]

[4] = tested on: MCF-7 cells; test: mammosphere formation assay; type: cell-based, human; conditions: MCF-7, 5 μM, 7 days; for MFE (%) ave: mean of 3, control 0.87; for MFE (control = 1) ave: relative to control = 1; for MFE (%): single replicates
Procedure: We also evaluated antiproliferative activity against cancer stem cells (CSCs), which are a small sub-population in tumour bulk identified in most cancer cells and clinical samples[52]. CSCs have been a major problem in cancer therapy because they are responsible for recurrence, metastasis and drug resistance to chemotherapeutic agents that affect proliferative cells[53]–[56]. Anti-CSC activity was evaluated by the inhibition of sphere-forming ability, a well-studied method to enrich the CSC-like population, and selective cytotoxicity against one of the most reliable CSC markers, aldehyde dehydrogenase (ALDH)-positive cells. […] Low-toxicity 16 was also added as a negative control. […] We next evaluated the three DDPs that inhibited mammosphere formations against ALDH-positive cells, a functional marker for breast CSCs. MCF-7 cells were treated with 1 μM of 11, 12 or 22, and the ALDH-positive cell population was analysed by using a fluorescence activated cell sorter (Supplementary Fig. 46b). […] Thus, for the first time, we successfully found DDPs with potent antiproliferative effects on the CSC-like population in MCF-7 cells, which may lead to new anti-CSC drugs.
Fig. 5 DDPs show anti-CSC activity in breast cancer cell line MCF-7. a Effect of DDPs on mammosphere formation. After the cells were cultured in the presence of 5 μM DDPs for 7 days, the number of mammospheres was microscopically counted and the percentage of mammosphere-forming cells was determined as mammosphere-forming efficiency (MFE; %). Data represent mean ± s.d. from three independent replicate experiments. P-values were calculated by a two-sided unpaired Student’s t-test, compared with control. b Micrographs show representative images of mammosphere formation from three independent replicate experiments using compound 11, 12, 16, 22. The scale bar, […]. c Effect of DDPs (1 μM, 3 days) on ALDH-positive cells in MCF-7 cells. Data represent mean ± s.d. from three independent replicate experiments. P-values were calculated by a two-sided unpaired Student’s t-test, compared with control. d Dose-dependent effect of compound 12 on ALDH-positive cells in MCF-7 cells. Data represent mean ± s.d. from three independent replicate experiments. P-values were calculated by a two-sided unpaired Student’s t-test. Source data underlying Fig. 5a, c, d are provided in a Source Data file.

[5] = 0.1 µM (DMSO 0.002%), control 1.064
[6] = 1 µM (DMSO 0.02%), control 1.104
[7] = 10 µM (DMSO 0.2%), control 1.049

SMILES	viability at 0.1 µM ([3]; 0.1 µM (DMSO 0.002%)) [%]	viability at 1 µM ([3]; 1 µM (DMSO 0.02%)) [%]	viability at 10 µM ([3]; 10 µM (DMSO 0.2%)) [%]	A490 ave [3, 5]	A490 ave [3, 6]	A490 ave [3, 7]	MFE (%) ave [4] [%]	MFE (control = 1) ave [4]	MFE (%) [4]	also measured
CC(C)=CCCC1(C)OC1CC/C(C)=C/CC/C(C)=C/Cc1c(O)c(C)c(C)oc1=O (centres unmarked) [Compound 3]	–	–	–	–	–	–	–	–	–	EC50 ([1]; Human immunodeficiency virus 1, MAGI, single determinations, read-out: Efficacy (EC50)): > 10000 nM
Cc1cn([C@H]2C[C@H](N=[N+]=[N-])[C@@H](CO)O2)c(=O)[nH]c1=O [AZT, reference compound]	–	–	–	–	–	–	–	–	–	CC50 [2]: > 10000 nM; Cytotoxicity [2]: >10 µM; EC50 ([1]; MAGI assay, read-out: EC50): 29.7 nM; EC50 ([1]; average of numeric determinations, read-out: Avg. EC50): 29.7 nM
Cc1oc(=O)cc(O)c1C [Compound 1]	–	–	–	–	–	–	–	–	–	Cytotoxicity ([2]; single determinations): >10 µM and 9.224 µM and 8.859 µM; EC50 ([1]; Human immunodeficiency virus 1, MAGI, average of numeric determinations, read-out: Avg. EC50): 76 nM
COc1cccc2c1C(=O)c1c(O)c3c(c(O)c1C2=O)C[C@@](O)(C(=O)CO)C[C@@H]3O[C@H]1C[C@H](N)[C@H](O)[C@H](C)O1 [Dox, doxorubicin, reference compound]	82.9	47.4	21	0.882	0.523	0.220	0.58	0.67	0.68% and 0.52% and 0.54%	A490 ([3]; 10 µM (DMSO 0.2%), single replicates): 0.193
O=c1[nH]cc(F)c(=O)[nH]1 [Compound 5-FU, 5-fluorouracil, reference compound]	75.5	67.3	55.5	0.803	0.744	0.582	1.09	1.25	1.16% and 1.20% and 0.90%	–
